Assay results taken from the supplement of paper PMC10307832.

Assays:
Experiment in all cases: relative viability (nuclei count vs DMSO), 5 days (fraction); higher = more cells survive
OSI-027 + Dasatinib = compound: COc1cccc2cc(-c3nc([C@H]4CC[C@H](C(=O)O)CC4)n4ncnc(N)c34)[nH]c12 [OSI-027] + Cc1nc(Nc2ncc(C(=O)Nc3c(C)cccc3Cl)s2)cc(N2CCN(CCO)CC2)n1 [Dasatinib] (partner 0.075 µM)
Method in brief: (§1)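 For relative viability, nuclei counts in treated wells were divided by those in vehicle wells. Lung cancer cell lines had been pin-tool dosed in 1536-well plates the day after seeding and cultured for 5 days, then fixed and stained in one step (final 0.05% Triton X-100, 1% formaldehyde, 1 ug/ml Hoechst) and imaged at 4×. Doses were one drug alone or a fixed anchor-drug dose plus five library-drug doses (not always all listed) in √10 steps, and values are duplicate-plate medians.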

Vemurafenib + Linsitinib = compound: CCCS(=O)(=O)Nc1ccc(F)c(C(=O)c2c[nH]c3ncc(-c4ccc(Cl)cc4)cc23)c1F [Vemurafenib] + C[C@]1(O)C[C@@H](c2nc(-c3ccc4ccc(-c5ccccc5)nc4c3)c3c(N)nccn32)C1 [Linsitinib] (partner 1 µM)
Method in brief: as §1

Alpelisib + Pictilisib = compound: Cc1nc(NC(=O)N2CCC[C@H]2C(N)=O)sc1-c1ccnc(C(C)(C)C(F)(F)F)c1 [Alpelisib] + CS(=O)(=O)N1CCN(Cc2cc3nc(-c4cccc5[nH]ncc45)nc(N4CCOCC4)c3s2)CC1 [Pictilisib] (partner 1 µM)
Method in brief: as §1

Vemurafenib + Pemetrexed = compound: CCCS(=O)(=O)Nc1ccc(F)c(C(=O)c2c[nH]c3ncc(-c4ccc(Cl)cc4)cc23)c1F [Vemurafenib] + Nc1nc2[nH]cc(CCc3ccc(C(=O)N[C@@H](CCC(=O)O)C(=O)O)cc3)c2c(=O)[nH]1 [Pemetrexed] (partner 0.2 µM)
Method in brief: as §1

In the case of UMC-11, the relative viability (OSI-027 + Dasatinib; first compound 0.01 µM) is reported as 0.537, the relative viability (OSI-027 + Dasatinib; first compound 0.03162 µM) is reported as 0.457 and the relative viability (OSI-027 + Dasatinib; first compound 0.1 µM) is reported as 0.404. It also gave a relative viability (OSI-027 + Dasatinib; first compound 0.3162 µM) of 0.434, a relative viability (OSI-027 + Dasatinib; first compound 1 µM) of 0.299 and a relative viability (Vemurafenib + Linsitinib; first compound 0.03162 µM) of 0.945. It also gave a relative viability (Vemurafenib + Linsitinib; first compound 0.1 µM) of 0.989, a relative viability (Vemurafenib + Linsitinib; first compound 0.3162 µM) of 1.06 and a relative viability (Vemurafenib + Linsitinib; first compound 1 µM) of 0.949. For the same cell line, the relative viability (Alpelisib + Pictilisib; first compound 0.04 µM) was 0.832, the relative viability (Alpelisib + Pictilisib; first compound 0.1265 µM) was 0.883 and the relative viability (Alpelisib + Pictilisib; first compound 0.4 µM) was 0.877. It also gave a relative viability (Alpelisib + Pictilisib; first compound 1.265 µM) of 0.922, a relative viability (Alpelisib + Pictilisib; first compound 4 µM) of 0.772 and a relative viability (Vemurafenib + Pemetrexed; first compound 0.03162 µM) of 0.876. It also gave a relative viability (Vemurafenib + Pemetrexed; first compound 0.1 µM) of 0.662, a relative viability (Vemurafenib + Pemetrexed; first compound 0.3162 µM) of 0.717 and a relative viability (Vemurafenib + Pemetrexed; first compound 1 µM) of 0.707.
